These results are taken from US6800633B2, “Pyrrolo[2,3d]pyrimidine compositions and their use” (OSI Pharmaceuticals, Inc., priority 1998, dated 2004).

pKi: −log10 of the molar value. Like-named read-outs stand apart in the source and are kept apart here.

The target of series [1] is T1, human A1 adenosine receptor (Homo sapiens, UniProt P30542).
T1 sequence (P30542 1-326): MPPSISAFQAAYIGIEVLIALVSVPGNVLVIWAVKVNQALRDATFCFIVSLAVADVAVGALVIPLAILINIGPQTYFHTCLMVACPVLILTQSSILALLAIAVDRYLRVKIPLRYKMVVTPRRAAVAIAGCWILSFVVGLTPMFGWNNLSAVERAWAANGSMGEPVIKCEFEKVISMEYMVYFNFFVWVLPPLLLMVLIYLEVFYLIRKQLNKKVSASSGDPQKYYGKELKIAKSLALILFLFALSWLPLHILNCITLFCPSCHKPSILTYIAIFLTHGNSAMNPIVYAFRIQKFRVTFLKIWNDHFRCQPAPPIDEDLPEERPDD
Conditions: A1 adenosine receptor agonist; cited from earlier work.

The target of series [2] is T2, human A2b receptor subtype (Homo sapiens, UniProt P29275).
T2 construct: expressed in transfected cells; host or cells: HEK293
T2 sequence (P29275 1-332): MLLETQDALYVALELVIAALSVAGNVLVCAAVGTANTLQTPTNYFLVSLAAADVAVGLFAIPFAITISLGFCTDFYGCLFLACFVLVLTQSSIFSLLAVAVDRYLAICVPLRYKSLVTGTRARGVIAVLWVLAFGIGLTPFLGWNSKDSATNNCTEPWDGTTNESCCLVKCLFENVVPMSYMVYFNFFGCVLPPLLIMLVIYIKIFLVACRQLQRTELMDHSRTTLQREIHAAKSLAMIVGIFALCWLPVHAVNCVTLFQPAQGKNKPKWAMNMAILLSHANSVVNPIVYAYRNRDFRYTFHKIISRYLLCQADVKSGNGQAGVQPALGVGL
Kind of series: Adenosine 2b receptor subtype competition radioligand binding, [3H]DPCPX, HEK293 membranes. Conditions: for pKi: Table 13, read-out: Binding Ki (nm) A2b.

For series [3], the target named is T3, human A3 receptor subtype (Homo sapiens, UniProt P0DMS8).
T3 sequence (P0DMS8 1-318): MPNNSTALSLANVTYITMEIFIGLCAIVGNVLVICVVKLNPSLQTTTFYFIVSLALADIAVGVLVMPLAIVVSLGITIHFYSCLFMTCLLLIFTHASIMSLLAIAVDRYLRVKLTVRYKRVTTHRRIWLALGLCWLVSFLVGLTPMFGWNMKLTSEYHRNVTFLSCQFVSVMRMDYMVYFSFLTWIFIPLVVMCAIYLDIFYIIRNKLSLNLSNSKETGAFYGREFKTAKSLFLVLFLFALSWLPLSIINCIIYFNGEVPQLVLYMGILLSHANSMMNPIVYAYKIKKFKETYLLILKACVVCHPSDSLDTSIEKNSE
Kind of series: Adenosine 3 receptor competition radioligand binding, [125I]AB-MECA, HEK293 membranes.

The target in series [4] is T4, human A1 receptor subtype (Homo sapiens, UniProt P30542).
T4 sequence (P30542 1-326): T1 sequence (P30542 1-326)

The target in series [5] is human A2a receptor subtype (Homo sapiens, UniProt P29274). Kind of series: Adenosine 2a receptor subtype competition radioligand binding, [3H]CGS-21680, HEK293 membranes.
Series [6] addresses T4, human A1 receptor subtype. In words: biochemical.
A short description of series [7]: Water solubility (footnote to Table 13). Format: physicochemical.
Where [8] appears, read: Table 13, given as %, footnote 8: % activity @ 10 μM.

Chain of human A2a receptor subtype (P29274 whole entry): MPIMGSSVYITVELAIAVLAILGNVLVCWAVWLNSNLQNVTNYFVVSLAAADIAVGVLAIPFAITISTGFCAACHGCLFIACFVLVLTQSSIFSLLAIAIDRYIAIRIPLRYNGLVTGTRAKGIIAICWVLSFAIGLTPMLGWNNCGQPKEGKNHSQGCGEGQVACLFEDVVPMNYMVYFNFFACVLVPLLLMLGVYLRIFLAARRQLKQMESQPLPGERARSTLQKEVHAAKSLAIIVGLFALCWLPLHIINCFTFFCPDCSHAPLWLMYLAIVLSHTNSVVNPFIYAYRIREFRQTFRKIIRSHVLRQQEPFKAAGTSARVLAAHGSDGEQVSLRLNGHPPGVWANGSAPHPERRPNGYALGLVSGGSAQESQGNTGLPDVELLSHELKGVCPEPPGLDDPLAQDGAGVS

For `CC(Cc1ccccc1)Nc1ncnc2c1ncn2[C@@H]1O[C@H](CO)[C@@H](O)[C@H]1O` (single isomer, unassigned; (-)) [R-PIA, (−)-N6-(2-phenylisopropyl)-adenosine], in series [1], the reported affinity result is “approximately 50 nM”.
With `Cc1[nH]c2nc(-c3ccccc3)nc(NC3CCC(O)CC3)c2c1C` (stereo not shown) [CDS-046142], the pKi (as a rule, the negative decadic logarithm of the Ki, by convention in mol/L) in series [2] is 6.86; in series [3], 7.67.
Turning to `Cc1[nH]c2nc(-c3ccccc3)nc(NC3CCC(NS(C)(=O)=O)CC3)c2c1C` (stereo not shown) [CDS-056176], the pKi in series [4] (read-out: A1 Binding Ki, membranes from yeast cells transformed with human A1 receptor, [3H]DPCPX 1.0 nM) is below 5.00.
On to `Cc1[nH]c2nc(-c3cccs3)nc(NC3CCC(O)CC3)c2c1C` (stereo not drawn) [CDS-090890, 4-(4-trans-hydroxycyclohexyl)amino-5,6-dimethyl-2-(2-thienyl)-7H-pyrrolo[2,3d]pyrimidin-4-amine], for which, in series [2] (setting [8]), the “A2b binding, % activity” value turned out to be 30%. Further, the pKi is 8.00 in series [3] and 6.14 in series [5].
As for `CNC(=O)NCCCNc1nc(-c2ccccc2)nc2[nH]c(C)c(C)c12` [CDS-121180], in series [5] (setting [8]), the “A2a binding, % activity” value amounted to 76%.
With `Cc1[nH]c2nc(-c3ccccc3)nc(NCCCNC(=O)CCN)c2c1C` [CDS-121181], the results for the pKi in series [2] and in series [6] were 5.47 and 4.12, respectively.
On to `Cc1[nH]c2nc(-c3ccccc3)nc(NCCNC(=O)C3(N)CC3)c2c1C` [CDS-123264], for which the water solubility entry in series [7] is recorded as “^3water soluble;”. In series [4] (setting [8]), the “A1 binding, % activity” value turned out to be 30%.
Turning to `CC(=O)NCCNc1nc(-c2ccccc2)nc2[nH]c(COc3ccccc3)cc12` [CDS-129851, 4-(2-acetylaminoethyl)amino-6-phenoxymethyl-2-phenyl-7H-pyrrolo[2,3d]pyrimidine], the pKi in series [6] was 7.38; in series [3], 7.84.
On to `O[C@H]1CC[C@H](Nc2nc(-c3ccncc3)nc3[nH]ccc23)CC1` [CDS-131921, 4-(trans-4-hydroxycyclohexyl)amino-2-(4-pyridyl)-7H-pyrrolo[2,3d]pyrimidine], for which, in series [3] (Table 13, 10 μM), the “A3 binding, % activity @ 10 μM” value is reported as 54%^8.
As to `CC(=O)NCCNc1nc(-c2ccccc2)nc2[nH]c(Cn3ccccc3=O)cc12` [CDS-143988, 4-(2-acetylaminoethyl)amino-6-(N-pyridin-2-one)methyl-2-phenyl-7H-pyrrolo[2,3d]pyrimidine], the Ki (as a rule, the equilibrium dissociation constant of an inhibitor or competing ligand from its target) in series [2] (Table 14, read-out: Binding Data Ki (nM) A2B) is 47 nM.
